Test: Inhibition of beta-amyloid peptide production in CHO N9 cell line

| Structure (SMILES) | IC50 [nM] |
| --- | --- |
| CCC[C@H](C(N)=O)[C@@H](CC(C)C)C(=O)N[C@H]1CCCCN(Cc2cccc(Nc3ccccc3)c2)C1=O [(2R,3S)-N1-((S)-1-(3-(phenylamino)benzyl)-2-oxoazepan-3-yl)-2-isobutyl-3-propylsuccinamide] | 15 |
| CCC[C@H](C(=O)NC/C=C/Cc1ccccc1)[C@@H](CC(C)C)C(=O)N[C@H]1CCCCN(Cc2cccc(Oc3ccccc3)c2)C1=O | 3000 |
| CCC[C@H](C(N)=O)[C@@H](CC(C)C)C(=O)N[C@H]1CCCCN(Cc2cccc(Nc3ccc(OC)cc3)c2)C1=O | 160 |
| CCC[C@H](C(N)=O)[C@@H](CC(C)C)C(=O)N[C@H]1CCCCN(Cc2cccc(Nc3cccc(C)c3)c2)C1=O | 17 |
| CCC[C@H](C(N)=O)[C@@H](CC(C)C)C(=O)N[C@H]1CCCCN(Cc2cccc(Nc3cccc(OC)c3)c2)C1=O | 54 |
| CCC[C@H](C(=O)NCc1ccco1)[C@@H](CC(C)C)C(=O)N[C@H]1CCCCN(Cc2cccc(Oc3ccccc3)c2)C1=O | 3000 |
| CCC[C@H](C(N)=O)[C@@H](CC(C)C)C(=O)N[C@H]1CCCCN(Cc2cccc(Nc3ccccc3Cl)c2)C1=O | 29 |
| CCC[C@H](C(N)=O)[C@@H](CC(C)C)C(=O)N[C@H]1CCCCN(Cc2cccc(Nc3ccc(C(F)(F)F)cc3)c2)C1=O | 30 |
| CCC[C@H](C(=O)NO)[C@@H](CC(C)C)C(=O)N[C@H]1CCCCN(Cc2ccccc2)C1=O | 6800 |
| CCC[C@H](C(N)=O)[C@@H](CC(C)C)C(=O)N[C@H]1CCCCN(Cc2cccc(Nc3ccc4c(c3)OCO4)c2)C1=O | 152 |
| CCC[C@H](C(=O)NC1CCCC1)[C@@H](CC(C)C)C(=O)N[C@H]1CCCCN(Cc2cccc(Oc3ccccc3)c2)C1=O | 6000 |
| CCC[C@H](C(=O)NO)[C@@H](CC(C)C)C(=O)N[C@H]1CCCCN(Cc2cccc(Oc3ccccc3)c2)C1=O [(2S,3R)-N1-hydroxy-3-isobutyl-N4-((S)-2-oxo-1-(3-phenoxybenzyl)azepan-3-yl)-2-propylsuccinamide] | 200 |
| CCCCNC(=O)[C@@H](CCC)[C@@H](CC(C)C)C(=O)N[C@H]1CCCCN(Cc2cccc(Oc3ccccc3)c2)C1=O | 5000 |
| CCC[C@H](C(N)=O)[C@@H](CC(C)C)C(=O)N[C@H]1CCCCN(Cc2cccc(Nc3ccc(F)c(Cl)c3)c2)C1=O | 17 |

Reference: BindingDB's records for doi:10.1016/j.bmcl.2006.01.055 (Bristol-Myers Squibb Pharmaceutical Research Institute, 2006)
